Test results published in ChEMBL document CHEMBL3137667, “[Drug-induced liver injury; fourteenth updated edition of the bibliographic database of liver injuries and related drugs]” (Gastroenterol Clin Biol, 2004).

Experiments:
[1] = human
[2] = human, serum, 4383 h
[3] = human; remark: listed apart in the source
[4] = Highest frequency of moderate liver toxicity observed during clinical trials, expressed as a percentage. [column '% BIOL' in source]; details: human
[5] = Comments (NB not yet translated). [column 'COMMENTAIRES' in source]; details: human
[6] = human; remark: listed apart in the source
[7] = human; remark: listed apart in the source
[8] = human, serum
[9] = human, serum; remark: listed apart in the source
[10] = human; remark: listed apart in the source
[11] = Highest frequency of acute liver toxicity observed during clinical trials, expressed as a percentage. [column '% AIGUE' in source]; details: human
[12] = human; remark: listed apart in the source
[13] = human; remark: listed apart in the source
[14] = Proposed mechanism(s) of liver damage. [column 'MEC' in source]; details: human
[15] = human; remark: listed apart in the source
[16] = human; remark: listed apart in the source
[17] = Times to onset, minimal and maximal, observed in the indexed observations. [column 'DELAI' in source]; details: human
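For Hepatotoxicity (association with vascular disease) in this document: count of indexed literature references reporting vascular liver injury in humans, e.g. peliosis hepatitis, hepatic veno-occlusive disease or Budd-Chiari syndrome.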
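For Hepatotoxicity (benign tumour) in this document: value is a count of indexed literature references citing a benign tumour confirmed by histopathology.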
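For Hepatotoxicity (choleostasis) in this document: human cholestatic liver injury, shown by histopathology or by peak ALT or AST elevation over alkaline phosphatase ratio below 2, value counts indexed literature reports.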
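For Hepatotoxicity (chronic liver disease) in this document: chronic liver injury confirmed by histopathology or persistently raised serum aminotransferase activity beyond 6 months, value given as the count of indexed literature references.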
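For Hepatotoxicity (cirrhosis) in this document: value is a count of indexed literature references reporting cirrhosis confirmed by histopathology.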
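For Hepatotoxicity (cytolytic) in this document: human cytolytic liver injury, shown by histopathology or by a ratio above 5 of peak ALT or AST elevation to alkaline phosphatase elevation, value counts indexed references.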
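For Hepatotoxicity (granulomatous hepatitis) in this document: value is a count of indexed literature references reporting granulomatous liver disease confirmed by histopathology.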
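For Hepatotoxicity (malignant tumour) in this document: malignant tumour confirmed by histopathology, value gives the count of indexed literature references reporting it.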
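For Hepatotoxicity (severe hepatitis) in this document: human clinical data: severe hepatitis, meaning potentially life-threatening liver failure or clinically observed cases, the value counts how many indexed literature references report it.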
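For Hepatotoxicity (steatosis) in this document: steatosis confirmed by histopathology, value is the count of indexed references.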

SMILES: CCC(C)n1ncn(-c2ccc(N3CCN(c4ccc(OCC5COC(Cn6cncn6)(c6ccc(Cl)cc6Cl)O5)cc4)CC3)cc2)c1=O (stereo unspecified) [ITRACONAZOLE]
- Hepatotoxicity (choleostasis) [1]: 10
- Hepatotoxicity (chronic liver disease) [2]: 0
- Hepatotoxicity (severe hepatitis) [3]: 1
- Hepatotoxicity (moderate) [4]: 91.7%
- Hepatotoxicity (comment) [5]: CHOLANGITE DUCTOPENIE HNF
- Hepatotoxicity (cytolytic) [6]: 10
- Hepatotoxicity (steatosis) [7]: 1
- Hepatotoxicity (acute) [8]: 18
- Hepatotoxicity (moderate) [9]: 55
- Hepatotoxicity (granulomatous hepatitis) [10]: 0
- Hepatotoxicity (acute) [11]: 30%
- Hepatotoxicity (benign tumour) [12]: 1
- Hepatotoxicity (malignant tumour) [13]: 0
- Hepatotoxicity (mechanism) [14]: Dose-dependant
- Hepatotoxicity (association with vascular disease) [15]: 0
- Hepatotoxicity (cirrhosis) [16]: 0
- Hepatotoxicity (time to onset) [17]: 5 days - 7 months

SMILES: Nc1nnc(-c2cccc(Cl)c2Cl)c(N)n1 [LAMOTRIGINE]
- Hepatotoxicity (choleostasis) [1]: 1
- Hepatotoxicity (chronic liver disease) [2]: 0
- Hepatotoxicity (severe hepatitis) [3]: 9
- Hepatotoxicity (moderate) [4]: 7.7%
- Hepatotoxicity (comment) [5]: DUCTOPENIE CHOLESTASE_PROLONGEE
- Hepatotoxicity (cytolytic) [6]: 12
- Hepatotoxicity (steatosis) [7]: 0
- Hepatotoxicity (acute) [8]: 17
- Hepatotoxicity (moderate) [9]: 7
- Hepatotoxicity (granulomatous hepatitis) [10]: 0
- Hepatotoxicity (acute) [11]: 0%
- Hepatotoxicity (benign tumour) [12]: 0
- Hepatotoxicity (malignant tumour) [13]: 0
- Hepatotoxicity (mechanism) [14]: Allergic
- Hepatotoxicity (association with vascular disease) [15]: 0
- Hepatotoxicity (cirrhosis) [16]: 0
- Hepatotoxicity (time to onset) [17]: 5 days - 3 months

SMILES: NCCCC[C@H](N[C@@H](CCc1ccccc1)C(=O)O)C(=O)N1CCC[C@H]1C(=O)O [LISINOPRIL ANHYDROUS]
- Hepatotoxicity (choleostasis) [1]: 0
- Hepatotoxicity (chronic liver disease) [2]: 1
- Hepatotoxicity (severe hepatitis) [3]: 1
- Hepatotoxicity (moderate) [4]: 7.7%
- Hepatotoxicity (comment) [5]: AC_ANTI-ML RC/LISINOPRIL
- Hepatotoxicity (cytolytic) [6]: 2
- Hepatotoxicity (steatosis) [7]: 0
- Hepatotoxicity (acute) [8]: 3
- Hepatotoxicity (moderate) [9]: 4
- Hepatotoxicity (granulomatous hepatitis) [10]: 0
- Hepatotoxicity (acute) [11]: 0%
- Hepatotoxicity (benign tumour) [12]: 0
- Hepatotoxicity (malignant tumour) [13]: 0
- Hepatotoxicity (mechanism) [14]: Allergic
- Hepatotoxicity (association with vascular disease) [15]: 0
- Hepatotoxicity (cirrhosis) [16]: 0
- Hepatotoxicity (time to onset) [17]: 9 days - 5 months

SMILES: COc1ccc2[nH]cc(CCNC(C)=O)c2c1 [MELATONIN]
- Hepatotoxicity (choleostasis) [1]: 0
- Hepatotoxicity (chronic liver disease) [2]: 0
- Hepatotoxicity (severe hepatitis) [3]: 0
- Hepatotoxicity (moderate) [4]: 0%
- Hepatotoxicity (comment) [5]: AC_ANTI-ML
- Hepatotoxicity (cytolytic) [6]: 1
- Hepatotoxicity (steatosis) [7]: 0
- Hepatotoxicity (acute) [8]: 1
- Hepatotoxicity (moderate) [9]: 0
- Hepatotoxicity (granulomatous hepatitis) [10]: 0
- Hepatotoxicity (acute) [11]: 0%
- Hepatotoxicity (benign tumour) [12]: 0
- Hepatotoxicity (malignant tumour) [13]: 0
- Hepatotoxicity (mechanism) [14]: Allergic
- Hepatotoxicity (association with vascular disease) [15]: 0
- Hepatotoxicity (cirrhosis) [16]: 0
- Hepatotoxicity (time to onset) [17]: 3 weeks

SMILES: COc1ccc2cc([C@H](C)C(=O)O)ccc2c1 [NAPROXEN]
- Hepatotoxicity (choleostasis) ([1]; Liver): 8
- Hepatotoxicity (chronic liver disease) [2]: 0
- Hepatotoxicity (severe hepatitis) ([3]; Liver): 4
- Hepatotoxicity (moderate) ([4]; Liver): 9.5%
- Hepatotoxicity (comment) [5]: RC/FENOPROFENE
- Hepatotoxicity (cytolytic) ([6]; Liver): 8
- Hepatotoxicity (steatosis) [7]: 1
- Hepatotoxicity (acute) [8]: 19
- Hepatotoxicity (moderate) [9]: 13
- Hepatotoxicity (granulomatous hepatitis) ([10]; Liver): 1
- Hepatotoxicity (acute) ([11]; Liver): 1.1%
- Hepatotoxicity (benign tumour) [12]: 0
- Hepatotoxicity (malignant tumour) [13]: 0
- Hepatotoxicity (mechanism) ([14]; Liver): Allergic
- Hepatotoxicity (association with vascular disease) [15]: 0
- Hepatotoxicity (cirrhosis) [16]: 0
- Hepatotoxicity (time to onset) [17]: 2 days - 2 months

SMILES: Fc1ccc([C@@H]2CCNC[C@H]2COc2ccc3c(c2)OCO3)cc1 [PAROXETINE]
- Hepatotoxicity (choleostasis) [1]: 2
- Hepatotoxicity (chronic liver disease) [2]: 1
- Hepatotoxicity (severe hepatitis) [3]: 1
- Hepatotoxicity (moderate) [4]: 11%
- Hepatotoxicity (comment) [5]: AC_ANTI-N I/ATRIUM* RC/DOSULEPINE
- Hepatotoxicity (cytolytic) [6]: 5
- Hepatotoxicity (steatosis) [7]: 0
- Hepatotoxicity (acute) [8]: 8
- Hepatotoxicity (moderate) [9]: 6
- Hepatotoxicity (granulomatous hepatitis) [10]: 0
- Hepatotoxicity (acute) [11]: 2%
- Hepatotoxicity (benign tumour) [12]: 0
- Hepatotoxicity (malignant tumour) [13]: 0
- Hepatotoxicity (mechanism) [14]: Allergic
- Hepatotoxicity (association with vascular disease) [15]: 0
- Hepatotoxicity (cirrhosis) [16]: 0
- Hepatotoxicity (time to onset) [17]: 6 days - 15 months

SMILES: CC(=O)Nc1ccc(OCC(O)CNC(C)C)cc1 (stereo unspecified) [PRACTOLOL]
- Hepatotoxicity (choleostasis) [1]: 0
- Hepatotoxicity (chronic liver disease) [2]: 0
- Hepatotoxicity (severe hepatitis) [3]: 0
- Hepatotoxicity (moderate) [4]: 0%
- Hepatotoxicity (comment) [5]: AC_ANTI-N/-M #CBP
- Hepatotoxicity (cytolytic) [6]: 0
- Hepatotoxicity (steatosis) [7]: 0
- Hepatotoxicity (acute) [8]: 0
- Hepatotoxicity (moderate) [9]: 0
- Hepatotoxicity (granulomatous hepatitis) [10]: 0
- Hepatotoxicity (acute) [11]: 0%
- Hepatotoxicity (benign tumour) [12]: 0
- Hepatotoxicity (malignant tumour) [13]: 0
- Hepatotoxicity (mechanism) [14]: Allergic
- Hepatotoxicity (association with vascular disease) [15]: 0
- Hepatotoxicity (cirrhosis) [16]: 1
- Hepatotoxicity (time to onset) [17]: 16 months - 4 years

SMILES: C[C@]12C=CC(=O)C=C1CC[C@@H]1[C@@H]2C(=O)C[C@@]2(C)[C@H]1CC[C@]2(O)C(=O)CO [PREDNISONE]
- Hepatotoxicity (choleostasis) [1]: 0
- Hepatotoxicity (chronic liver disease) [2]: 0
- Hepatotoxicity (severe hepatitis) [3]: 1
- Hepatotoxicity (moderate) [4]: 80%
- Hepatotoxicity (comment) [5]: AGGRAVATION/REACTIVATION_HVB HNF LITHIASE
- Hepatotoxicity (cytolytic) [6]: 0
- Hepatotoxicity (steatosis) [7]: 0
- Hepatotoxicity (acute) [8]: 0
- Hepatotoxicity (moderate) [9]: 1
- Hepatotoxicity (granulomatous hepatitis) [10]: 0
- Hepatotoxicity (acute) [11]: 0%
- Hepatotoxicity (benign tumour) [12]: 1
- Hepatotoxicity (malignant tumour) [13]: 0
- Hepatotoxicity (mechanism) [14]: Dose-dependant
- Hepatotoxicity (association with vascular disease) [15]: 0
- Hepatotoxicity (cirrhosis) [16]: 0
- Hepatotoxicity (time to onset) [17]: 10 months

SMILES: CN(C)CCCN1c2ccccc2Sc2ccccc21 [PROMAZINE]
- Hepatotoxicity (choleostasis) [1]: 6
- Hepatotoxicity (chronic liver disease) [2]: 0
- Hepatotoxicity (severe hepatitis) [3]: 0
- Hepatotoxicity (moderate) [4]: 0%
- Hepatotoxicity (comment) [5]: RC/CHLORPROMAZINE
- Hepatotoxicity (cytolytic) [6]: 0
- Hepatotoxicity (steatosis) [7]: 0
- Hepatotoxicity (acute) [8]: 6
- Hepatotoxicity (moderate) [9]: 1
- Hepatotoxicity (granulomatous hepatitis) [10]: 0
- Hepatotoxicity (acute) [11]: 0%
- Hepatotoxicity (benign tumour) [12]: 0
- Hepatotoxicity (malignant tumour) [13]: 0
- Hepatotoxicity (mechanism) [14]: Allergic
- Hepatotoxicity (association with vascular disease) [15]: 0
- Hepatotoxicity (cirrhosis) [16]: 0
- Hepatotoxicity (time to onset) [17]: 2 days - 2 months

SMILES: CC(C)NCC(O)COc1cccc2ccccc12 (stereo unspecified) [PROPRANOLOL]
- Hepatotoxicity (choleostasis) [1]: 3
- Hepatotoxicity (chronic liver disease) [2]: 0
- Hepatotoxicity (severe hepatitis) [3]: 0
- Hepatotoxicity (moderate) [4]: 10%
- Hepatotoxicity (comment) [5]: CHOLANGIOLITE ENCEPHALOPATHIE
- Hepatotoxicity (cytolytic) [6]: 4
- Hepatotoxicity (steatosis) [7]: 0
- Hepatotoxicity (acute) [8]: 5
- Hepatotoxicity (moderate) [9]: 5
- Hepatotoxicity (granulomatous hepatitis) [10]: 0
- Hepatotoxicity (acute) [11]: 0%
- Hepatotoxicity (benign tumour) [12]: 0
- Hepatotoxicity (malignant tumour) [13]: 0
- Hepatotoxicity (mechanism) [14]: Allergic
- Hepatotoxicity (association with vascular disease) [15]: 0
- Hepatotoxicity (cirrhosis) [16]: 0
- Hepatotoxicity (time to onset) [17]: 1 month - 9 months

SMILES: CCCc1cc(C(N)=S)ccn1 [PROTIONAMIDE]
- Hepatotoxicity (choleostasis) [1]: 0
- Hepatotoxicity (chronic liver disease) [2]: 0
- Hepatotoxicity (severe hepatitis) [3]: 2
- Hepatotoxicity (moderate) [4]: 13%
- Hepatotoxicity (comment) [5]: I/PILULE
- Hepatotoxicity (cytolytic) [6]: 4
- Hepatotoxicity (steatosis) [7]: 0
- Hepatotoxicity (acute) [8]: 7
- Hepatotoxicity (moderate) [9]: 8
- Hepatotoxicity (granulomatous hepatitis) [10]: 0
- Hepatotoxicity (acute) [11]: 2.5%
- Hepatotoxicity (benign tumour) [12]: 0
- Hepatotoxicity (malignant tumour) [13]: 0
- Hepatotoxicity (mechanism) [14]: Dose-dependant
- Hepatotoxicity (association with vascular disease) [15]: 0
- Hepatotoxicity (cirrhosis) [16]: 0
- Hepatotoxicity (time to onset) [17]: 3 months - 1 year

SMILES: CCc1nc(N)nc(N)c1-c1ccc(Cl)cc1 [PYRIMETHAMINE]
- Hepatotoxicity (choleostasis) [1]: 1
- Hepatotoxicity (chronic liver disease) [2]: 0
- Hepatotoxicity (severe hepatitis) [3]: 0
- Hepatotoxicity (moderate) [4]: 28.6%
- Hepatotoxicity (comment) [5]: I/LORAZEPAM
- Hepatotoxicity (cytolytic) [6]: 0
- Hepatotoxicity (steatosis) [7]: 1
- Hepatotoxicity (acute) [8]: 1
- Hepatotoxicity (moderate) [9]: 8
- Hepatotoxicity (granulomatous hepatitis) [10]: 1
- Hepatotoxicity (acute) [11]: 0%
- Hepatotoxicity (benign tumour) [12]: 0
- Hepatotoxicity (malignant tumour) [13]: 0
- Hepatotoxicity (mechanism) [14]: Dose-dependant
- Hepatotoxicity (association with vascular disease) [15]: 0
- Hepatotoxicity (cirrhosis) [16]: 0
- Hepatotoxicity (time to onset) [17]: 4 hours - 4 months

SMILES: CN(CCOc1ccc(CC2SC(=O)NC2=O)cc1)c1ccccn1 (stereo unspecified) [ROSIGLITAZONE]
- Hepatotoxicity (choleostasis) [1]: 2
- Hepatotoxicity (chronic liver disease) [2]: 1
- Hepatotoxicity (severe hepatitis) [3]: 5
- Hepatotoxicity (moderate) [4]: 0.2%
- Hepatotoxicity (comment) [5]: CHOLANGITE
- Hepatotoxicity (cytolytic) [6]: 7
- Hepatotoxicity (steatosis) [7]: 0
- Hepatotoxicity (acute) [8]: 10
- Hepatotoxicity (moderate) [9]: 8
- Hepatotoxicity (granulomatous hepatitis) [10]: 3
- Hepatotoxicity (acute) [11]: 0%
- Hepatotoxicity (benign tumour) [12]: 0
- Hepatotoxicity (malignant tumour) [13]: 0
- Hepatotoxicity (mechanism) [14]: Allergic
- Hepatotoxicity (association with vascular disease) [15]: 0
- Hepatotoxicity (cirrhosis) [16]: 0
- Hepatotoxicity (time to onset) [17]: 1 week - 4 years
